Drawing on PubChem BioAssay (NCI), this text covers GI50 and TGI for nine compounds.

Some test systems named below: SR leukemia; SK-OV-3 ovarian; NCI-H226 lung; A498 renal; SNB-75 CNS; SF-268 CNS; HCT-116 colon; DU-145 prostate; RXF 393 renal; OVCAR-4 ovarian.
Common to all, as to assay: NCI-60 cell line screen, 48 h

Each structure is given as a SMILES string. Where “and” joins values, the source holds several entries; their conditions need not be identical. Equal values may be shown once.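 Cells were grown in 96-well plates and exposed to each compound for 48 hours at five concentrations; endpoints were interpolated linearly between bracketing concentrations, or set to the highest concentration if not reached. Abbreviation: GI50, concentration required for 50% inhibition of growth. TGI is the concentration that stops growth completely.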

For the compound `O=C(c1ccco1)c1c(C(F)(F)F)n([O-])c2ccc(C(F)(F)F)cc2[n+]1=O`, the GI50 with SR leukemia is 0.127 µM; in the assay with SK-OV-3 ovarian, 1.12 µM; in the assay on NCI-H226 lung it was 0.657 µM; in the assay with A498 renal, 1.41 µM; in the assay on SNB-75 CNS it was 0.576 µM; in the assay on SF-268 CNS, 0.266 µM. In addition, the GI50 in the assay with HCT-116 colon is 0.147 µM; in the assay on DU-145 prostate, 0.5 µM; in the assay with RXF 393 renal, 0.179 µM. Also, the TGI was found to be 0.408 µM in the assay on SR leukemia; 2.48 µM with SK-OV-3 ovarian; 1.55 µM with NCI-H226 lung; 2.76 µM in the assay with A498 renal; 1.55 µM in the assay with SNB-75 CNS; 0.674 µM with SF-268 CNS. Also, the TGI in the assay on HCT-116 colon turned out to be 0.279 µM; in the assay on DU-145 prostate, 0.925 µM; in the assay with RXF 393 renal it was 0.512 µM.
Regarding `O=C(Nc1cc(Cl)ccc1O)c1ccc(Nc2ccnc(C(F)(F)F)c2)cc1`, the GI50 in the assay with SR leukemia was 2.52 µM; with SK-OV-3 ovarian, 2.32 µM; in the assay with NCI-H226 lung, 2.02 µM; with A498 renal it was 2.39 µM; in the assay with OVCAR-4 ovarian, 3.56 µM; with SF-268 CNS, 3.99 µM. For the same compound, the GI50 in the assay on HCT-116 colon was 2.9 µM; in the assay on DU-145 prostate it was 3.25 µM; with RXF 393 renal it was 5.71 µM. Besides, the TGI in the assay with SR leukemia is 9.84 µM; in the assay with SK-OV-3 ovarian it was 7.11 µM; in the assay on NCI-H226 lung, 7.33 µM; in the assay with A498 renal, 7.17 µM; in the assay with OVCAR-4 ovarian, greater than 100 µM; in the assay with SF-268 CNS, greater than 100 µM. The figures for the TGI with HCT-116 colon, with DU-145 prostate and in the assay on RXF 393 renal were 60.8 µM, greater than 100 µM and greater than 100 µM, respectively.
As to `Nc1cc2c(cc1Br)[nH]c(=O)c1ccccc12`, the GI50 in the assay with SR leukemia was 5.07 µM; with SK-OV-3 ovarian, 10.1 µM; with NCI-H226 lung, 5.15 µM; with A498 renal, 3.91 µM; with SNB-75 CNS, 2.66 µM; with OVCAR-4 ovarian, 2.55 µM. The GI50 with SF-268 CNS was 5.9 µM; in the assay on HCT-116 colon, 2.91 µM; in the assay with DU-145 prostate it was 2.14 µM; in the assay with RXF 393 renal, 4.3 µM. In addition, the TGI amounted to 47.2 µM in the assay on SR leukemia; 54.1 µM with SK-OV-3 ovarian; 27.5 µM in the assay on NCI-H226 lung; 29.8 µM with A498 renal; 11.9 µM with SNB-75 CNS; 38.5 µM with OVCAR-4 ovarian. The TGI with SF-268 CNS was 44.9 µM; in the assay with HCT-116 colon, 25.5 µM; with DU-145 prostate, 4.76 µM; in the assay on RXF 393 renal, 21.7 µM.
Consider `COC(=O)C1=COC(C)C2CN3CCc4c([nH]c5ccccc45)C3CC12` (stereo unspecified), for which the GI50 was 12.6 µM and 27.8 µM with SR leukemia; 21.1 µM and 74.9 µM with A498 renal; 25.4 µM and > 100 µM in the assay with OVCAR-4 ovarian; 19 µM and > 100 µM with HCT-116 colon; 33.7 µM and > 100 µM in the assay on DU-145 prostate; 17.3 µM and > 100 µM with RXF 393 renal. For the same compound, the TGI in the assay with SR leukemia was 39.2 µM and > 100 µM; in the assay on SK-OV-3 ovarian, greater than 100 µM; in the assay on NCI-H226 lung, 29.4 µM and > 100 µM; with A498 renal it was 49.7 µM and > 100 µM; with OVCAR-4 ovarian it was greater than 100 µM; with SF-268 CNS, greater than 100 µM. The TGI in the assay with HCT-116 colon is 45.4 µM and > 100 µM; in the assay with DU-145 prostate, greater than 100 µM; in the assay on RXF 393 renal it was 69.9 µM and > 100 µM.
With `COc1cc(/C=C\c2cc(OC)c(OC)c(OC)c2)cc(N/C=C\C(=O)c2c[nH]c3ccccc23)c1OC`, the GI50 in the assay with SR leukemia is 0.469 µM; in the assay on SK-OV-3 ovarian, 12.3 µM; in the assay on NCI-H226 lung it was 7.28 µM; in the assay with A498 renal, 1.32 µM; with SNB-75 CNS, 1.47 µM; in the assay with SF-268 CNS it was 3.57 µM. Moreover, the GI50 in the assay with HCT-116 colon was 1.76 µM; with DU-145 prostate it was 2.06 µM; in the assay on RXF 393 renal, 1.69 µM. Besides, the TGI in the assay on SR leukemia is 3.38 µM; in the assay on SK-OV-3 ovarian, 27 µM; in the assay on NCI-H226 lung it was 27.7 µM; in the assay on A498 renal, 12 µM; in the assay with SNB-75 CNS, 2.92 µM; in the assay with SF-268 CNS it was 15.6 µM. Also, the TGI with HCT-116 colon was 3.49 µM; in the assay with DU-145 prostate, 4.08 µM; in the assay on RXF 393 renal, 3.38 µM.
For `O=C(/C=C/c1ccccc1)c1ccccc1`, the TGI with SR leukemia, in the assay on SK-OV-3 ovarian, in the assay on NCI-H226 lung, in the assay with A498 renal, in the assay on SNB-75 CNS and in the assay on OVCAR-4 ovarian was greater than 10 µM in each case. The TGI is greater than 10 µM in the assay on SF-268 CNS, 4.55 µM in the assay on HCT-116 colon, greater than 10 µM in the assay with DU-145 prostate and greater than 10 µM in the assay with RXF 393 renal.
Take `COC(c1ccc(C(C)(C)C)cc1)(c1ccc(C(C)(C)C)cc1)c1ccc(C(C)(C)C)cc1`: the TGI in the assay with SR leukemia, in the assay on NCI-H226 lung, in the assay with A498 renal, with SNB-75 CNS, in the assay with OVCAR-4 ovarian and with SF-268 CNS was greater than 100 µM each time. Besides, the TGI in the assay with HCT-116 colon and in the assay on DU-145 prostate was greater than 100 µM in each case.
On to `CC1CC(O)C(=O)C(O[C@@H]2C[C@@H]3CC[C@@H]4[C@H](CC[C@]5(C)C(C6=CC(=O)OC6)CC[C@]45O)[C@@]3(C=O)C[C@H]2O)O1` (stereo partly specified), for which the TGI in the assay with SR leukemia turned out to be 0.0792 µM; in the assay on SK-OV-3 ovarian, 0.122 µM; with NCI-H226 lung, 0.228 µM; in the assay with A498 renal, 0.232 µM; in the assay on SNB-75 CNS, 0.18 µM; in the assay with SF-268 CNS, 0.146 µM. In addition, the TGI was 0.0511 µM in the assay with HCT-116 colon, 0.0237 µM in the assay on DU-145 prostate and 0.0506 µM in the assay with RXF 393 renal.
For `COc1ccc(-c2nn(-c3cccc(Cl)c3)cc2-c2cc(-c3ccccc3)[nH]c(=O)c2C#N)cc1`, the GI50 with SR leukemia was 7.74 µM; in the assay on SK-OV-3 ovarian it was 0.922 µM; with NCI-H226 lung, 0.969 µM; with A498 renal, 0.171 µM; in the assay with SNB-75 CNS, 1.17 µM; with OVCAR-4 ovarian, 1.25 µM. For the same compound, the GI50 in the assay with SF-268 CNS was 2.59 µM; in the assay on HCT-116 colon it was 1.71 µM; with DU-145 prostate, 10.3 µM; in the assay with RXF 393 renal it was 0.897 µM. Also, the TGI in the assay on SR leukemia was 15.8 µM; with SK-OV-3 ovarian, 2.29 µM; in the assay on NCI-H226 lung it was greater than 50 µM; in the assay with A498 renal, 1.6 µM; in the assay with SNB-75 CNS it was 3.61 µM; with OVCAR-4 ovarian, 5.34 µM. In addition, the TGI in the assay on SF-268 CNS was greater than 50 µM; in the assay with HCT-116 colon, 32.8 µM; in the assay on DU-145 prostate, greater than 50 µM; in the assay with RXF 393 renal, 2.18 µM.
